{
  "source": "patent US20240398757A1",
  "about": "(COCRYSTAL PHARMA, INC., priority 2022, published 2024)",
  "data": [
    {"target": "T1, SARS2 protease (Severe acute respiratory syndrome coronavirus 2, UniProt P0DTD1)", "T1 construct": "SARS2 protease was added to a final concentration of 30 nM", "test": "SARS-CoV-2 protease inhibition assay (SARS2 FRET protease assay)", "format": "biochemical", "settings": "IC50 (μM), SARS2 protease 30 nM, peptide substrate 1.3 μM, 120 minutes at 37° C., compounds 20 μM to 0.075 nM", "units": {"IC50": "nM"}, "values": [
      {"compound": "CCCC[C@H](NC(=O)OC(c1cccc(F)c1)C(F)(F)c1cccc(F)c1)C(=O)N[C@@H](C[C@@H]1CCNC1=O)C(=O)C(=O)NC1CC1", "note": "(stereo partly drawn) [Compound A80]", "IC50": 140},
      {"compound": "CCCC[C@H](NC(=O)OC(c1ccccc1)C(F)(F)c1cccc(Cl)c1)C(=O)N[C@H](C=O)CC1CC(C)(C)NC1=O", "note": "(stereo partly drawn) [Compound A81]", "IC50": 470},
      {"compound": "CC(C)C[C@H](NC(=O)OC(c1cccc(Cl)c1)C1(c2cccc(Cl)c2)CCNCC1)C(=O)N[C@@H](C[C@@H]1CCNC1=O)C(=O)C(=O)NC1CC1", "note": "(stereo partly drawn) [Compound A83]", "IC50": 510},
      {"compound": "CC(C)C[C@H](NC(=O)OC(c1ccc(Cl)cc1)C1(c2cccc(Cl)c2)CCN(C(=O)OC(C)(C)C)CC1)C(=O)N[C@H](C=O)C[C@@H]1CCNC1=O", "note": "(stereo partly drawn) [Compound A85]", "IC50": 460},
      {"compound": "CC(C)C[C@H](NC(=O)OC(c1cccc(Cl)c1)C1(c2cccc(Cl)c2)CCN(C(=O)OC(C)(C)C)CC1)C(=O)N[C@H](C=O)C[C@@H]1CCNC1=O", "note": "(stereo partly drawn) [Compound A86]", "IC50": 370},
      {"compound": "CCCC[C@H](NC(=O)OC(c1ccccc1)C(F)(F)c1cccc(F)c1)C(=O)N[C@@H](C[C@@H]1CCNC1=O)C(=O)C(=O)NC1CC1", "note": "(stereo partly drawn) [Compound A87]", "IC50": 90},
      {"compound": "CC(C)C[C@H](NC(=O)OC(c1ccc(Cl)cc1)C1(c2cccc(Cl)c2)CCN(C(=O)OC(C)(C)C)CC1)C(=O)N[C@@H](C[C@@H]1CCNC1=O)C(=O)C(=O)NC1CC1", "note": "(stereo partly drawn) [Compound A88]", "IC50": 630},
      {"compound": "CCC[C@H](NC(=O)OC(c1ccccc1)C(F)(F)c1cccc(F)c1)C(=O)N[C@H](C=O)C[C@@H]1CCNC1=O", "note": "(stereo partly drawn) [Compound A89]", "IC50": 20},
      {"compound": "CCCC[C@H](NC(=O)OC(c1ccccc1)C1(c2cccc(Cl)c2)CC1)C(=O)N[C@H](C=O)C[C@@H]1CCNC1=O", "note": "(stereo partly drawn) [Compound A90]", "IC50": 40},
      {"compound": "CCCC[C@H](NC(=O)OC(c1ccc(F)cc1)C1(c2cccc(Cl)c2)CC1)C(=O)N[C@H](C=O)C[C@@H]1CCNC1=O", "note": "(stereo partly drawn) [Compound A91]", "IC50": 10},
      {"compound": "CC(C)C[C@H](NC(=O)OC(c1ccc(Cl)cc1)C1(c2cccc(Cl)c2)CCNCC1)C(=O)N[C@@H](C[C@@H]1CCNC1=O)C(=O)C(=O)NC1CC1", "note": "(stereo partly drawn) [Compound A92]", "IC50": 1120},
      {"compound": "O=C[C@H](C[C@@H]1CCNC1=O)NC(=O)[C@H](CC1CCCC1)NC(=O)OC(c1ccccc1)C(F)(F)c1cccc(Cl)c1", "note": "(stereo partly drawn) [Compound A93, 2-(3-chlorophenyl)-2,2-difluoro-1-phenylethyl ((S)-3-cyclopentyl-1-oxo-1-(((S)-1-oxo-3-((S)-2-oxopyrrolidin-3-yl)propan-2-yl)amino)propan-2-yl)carbamate]", "IC50": 0.3},
      {"compound": "O=C(N[C@@H](CC1CC1)C(=O)N[C@@H](C[C@@H]1CCNC1=O)C(=O)C(=O)NC1CC1)OC(c1ccccc1)C(F)(F)c1cccc(Cl)c1", "note": "(stereo partly drawn) [Compound A94]", "IC50": 12.3},
      {"compound": "O=C[C@H](C[C@@H]1CCNC1=O)NC(=O)[C@H](CC1CC1)NC(=O)OC(c1ccccc1)C(F)(F)c1cccc(Cl)c1", "note": "(stereo partly drawn) [Compound A95]", "IC50": 0.9},
      {"compound": "CCCC[C@H](NC(=O)OC(c1cccc(F)c1)C1(c2cccc(Cl)c2)CC1)C(=O)N[C@H](C=O)C[C@@H]1CCNC1=O", "note": "(stereo partly drawn) [Compound A96]", "IC50": 7},
      {"compound": "CCCC[C@H](NC(=O)OC(c1cccc(F)c1)C1(c2cccc(F)c2)CC1)C(=O)N[C@H](C=O)C[C@@H]1CCNC1=O", "note": "(stereo partly drawn) [Compound A97]", "IC50": 2.1},
      {"compound": "CCC[C@H](NC(=O)OC(c1ccccc1)C(F)(F)c1cccc(Cl)c1)C(=O)N[C@H](C=O)C[C@@H]1CCNC1=O", "note": "(stereo partly drawn) [Compound A98]", "IC50": 1.9},
      {"compound": "CCCC[C@H](NC(=O)OC(c1cccc(F)c1)C(F)(F)c1cccc(Cl)c1)C(=O)N[C@H](C=O)C[C@@H]1CCNC1=O", "note": "(stereo partly drawn) [Compound A99]", "IC50": 0.6},
      {"compound": "CCC[C@H](NC(=O)OC(c1ccccc1)C(F)(F)c1cccc(F)c1)C(=O)N[C@@H](C[C@@H]1CCNC1=O)C(=O)C(=O)NC1CC1", "note": "(stereo partly drawn) [Compound A100]", "IC50": 250},
      {"compound": "CCC(=O)OC([C@H](C[C@@H]1CCNC1=O)NC(=O)[C@H](CC1CCCCC1)NC(=O)OC(c1ccccc1)C(F)(F)c1cccc(Cl)c1)S(=O)(=O)O", "note": "(stereo partly drawn) [Compound A101]", "IC50": 178},
      {"compound": "O=C[C@H](C[C@@H]1CCNC1=O)NC(=O)[C@H](CC1CCC1)NC(=O)OC(c1ccccc1)C(F)(F)c1cccc(Cl)c1", "note": "(stereo partly drawn) [Compound A102]", "IC50": 0.1},
      {"compound": "O=C(N[C@@H](CC1CCCC1)C(=O)N[C@@H](C[C@@H]1CCNC1=O)C(=O)C(=O)NC1CC1)OC(c1ccccc1)C(F)(F)c1cccc(Cl)c1", "note": "(stereo partly drawn) [Compound A103]", "IC50": 156},
      {"compound": "CCCC[C@H](NC(=O)OC(c1cccc(F)c1)C1(c2cccc(F)c2)CC1)C(=O)N[C@@H](C[C@@H]1CCNC1=O)C(=O)C(=O)NC1CC1", "note": "(stereo partly drawn) [Compound A104]", "IC50": 309},
      {"compound": "CCCC[C@H](NC(=O)OC(c1cccc(F)c1)C1(c2cccc(Cl)c2)CC1)C(=O)N[C@@H](C[C@@H]1CCNC1=O)C(=O)C(=O)NC1CC1", "note": "(stereo partly drawn) [Compound A105]", "IC50": 510},
      {"compound": "CCCC[C@H](NC(=O)OC(c1cccc(F)c1)C(F)(F)c1cccc(Cl)c1)C(=O)N[C@@H](C[C@@H]1CCNC1=O)C(=O)C(=O)NC1CC1", "note": "(stereo partly drawn) [Compound A106]", "IC50": 170},
      {"compound": "CCCC[C@H](NC(=O)O[C@@H](c1ccccc1)C(F)(F)c1cccc(Cl)c1)C(=O)N[C@H](C=O)C[C@@H]1CCNC1=O", "note": "[Compound A107, (S)-2-(3-chlorophenyl)-2,2-difluoro-1-phenylethyl ((S)-1-oxo-1-(((S)-1-oxo-3-((S)-2-oxopyrrolidin-3-yl)propan-2-yl)amino)hexan-2-yl)carbamate]", "IC50": 1},
      {"compound": "CCC[C@H](NC(=O)OC(c1ccccc1)C(F)(F)c1cccc(Cl)c1)C(=O)N[C@@H](C[C@@H]1CCNC1=O)C(=O)C(=O)NC1CC1", "note": "(stereo partly drawn) [Compound A109]", "IC50": 170},
      {"compound": "CCCC[C@H](NC(=O)O[C@H](c1ccccc1)C(F)(F)c1cccc(Cl)c1)C(=O)N[C@H](C=O)C[C@@H]1CCNC1=O", "note": "[Compound A110, (R)-2-(3-chlorophenyl)-2,2-difluoro-1-phenylethyl ((S)-1-oxo-1-(((S)-1-oxo-3-((S)-2-oxopyrrolidin-3-yl)propan-2-yl)amino)hexan-2-yl)carbamate]", "IC50": 0.2},
      {"compound": "CCCC[C@H](NC(=O)O[C@H](c1ccccc1)C(F)(F)c1cccc(Cl)c1)C(=O)N[C@@H](C[C@@H]1CCNC1=O)C(O)S(=O)(=O)O", "note": "(stereo partly drawn) [Compound A111]", "IC50": 2.8},
      {"compound": "CCCC[C@H](NC(=O)OC(c1ccccc1)C(F)(F)c1cccc(Cl)c1)C(=O)N[C@H](C=O)CC1CC(C)NC1=O", "note": "(stereo partly drawn) [Compound A112]", "IC50": 179},
      {"compound": "CCCC(=O)OC([C@H](C[C@@H]1CCNC1=O)NC(=O)[C@H](CC1CCCCC1)NC(=O)OC(c1ccccc1)C(F)(F)c1cccc(Cl)c1)S(=O)(=O)O", "note": "(stereo partly drawn) [Compound A113]", "IC50": 241},
      {"compound": "CCCC[C@H](NC(=O)OC(c1ccccc1)C(F)(F)c1cccc(Cl)c1)C(=O)N[C@H](C=O)C[C@@H]1CCCNC1=O", "note": "(stereo partly drawn) [Compound A114]", "IC50": 0.3},
      {"compound": "CCCC[C@H](NC(=O)O[C@@H](c1ccccc1)C(F)(F)c1cccc(Cl)c1)C(=O)N[C@@H](C[C@@H]1CCNC1=O)C(=O)C(=O)NC1CC1", "note": "[Compound A115]", "IC50": 805},
      {"compound": "O=C(N[C@@H](CC1CCCCC1)C(=O)N[C@@H](C[C@@H]1CCNC1=O)C(=O)C(=O)NC1CC1)O[C@@H](c1ccccc1)C(F)(F)c1cccc(Cl)c1", "note": "[Compound A116]", "IC50": 28.9},
      {"compound": "CCNC(=O)C(=O)[C@H](C[C@@H]1CCNC1=O)NC(=O)[C@H](CC1CCCC1)NC(=O)OC(c1ccccc1)C(F)(F)c1cccc(Cl)c1", "note": "(stereo partly drawn) [Compound A117, 2-(3-chlorophenyl)-2,2-difluoro-1-phenylethyl ((S)-3-cyclopentyl-1-(((S)-4-(ethylamino)-3,4-dioxo-1-((S)-2-oxopyrrolidin-3-yl)butan-2-yl)amino)-1-oxopropan-2-yl)carbamate]", "IC50": 2.8},
      {"compound": "CCNC(=O)C(=O)[C@H](C[C@@H]1CCNC1=O)NC(=O)[C@H](CC1CCCCC1)NC(=O)O[C@@H](c1ccccc1)C(F)(F)c1cccc(Cl)c1", "note": "[Compound A120]", "IC50": "< 0.01"},
      {"compound": "CCCC[C@H](NC(=O)O[C@@H](c1ccccc1)C(F)(F)c1cccc(Cl)c1)C(=O)N[C@@H](C[C@@H]1CCNC1=O)C(O)S(=O)(=O)O", "note": "(stereo partly drawn) [Compound A121]", "IC50": 18},
      {"compound": "CCCC[C@H](NC(=O)O[C@@H](c1ccccc1)C(C)(C)c1cccc(Cl)c1)C(=O)N[C@H](C=O)C[C@H]1CCNC1=O", "note": "[Compound A122, (S)-2-(3-Chlorophenyl)-2-methyl-1-phenylpropyl ((S)-1-oxo-1-(((S)-1-oxo-3-((R)-2-oxopyrrolidin-3-yl)propan-2-yl)amino)hexan-2-yl)carbamate]", "IC50": "< 0.1"},
      {"compound": "CCCC[C@H](NC(=O)O[C@H](c1ccccc1)C(C)(C)c1cccc(Cl)c1)C(=O)N[C@H](C=O)C[C@H]1CCNC1=O", "note": "[Compound A123]", "IC50": 5300},
      {"compound": "O=C[C@H](C[C@@H]1CCCNC1=O)NC(=O)[C@H](CC1CCCCC1)NC(=O)OC(c1ccccc1)C(F)(F)c1cccc(Cl)c1", "note": "(stereo partly drawn) [Compound A124]", "IC50": 0.1},
      {"compound": "O=C[C@H](C[C@@H]1CCNC1=O)NC(=O)[C@H](CC1CCCCC1)NC(=O)O[C@@H](c1ccccc1)C(F)(F)c1cccc(Cl)c1", "note": "[Compound A125]", "IC50": 4.2},
      {"compound": "O=C[C@H](C[C@@H]1CCNC1=O)NC(=O)[C@H](CC1CCCCC1)NC(=O)O[C@@H](c1ccccc1)C(F)(F)c1cccc(F)c1", "note": "[Compound A126]", "IC50": "< 0.01"},
      {"compound": "CCCC[C@H](NC(=O)OC(c1ccccc1)C(F)(F)c1cccc(Cl)c1)C(=O)N[C@@H](C[C@@H]1CCCNC1=O)C(=O)C(=O)NC1CC1", "note": "(stereo partly drawn) [Compound A127]", "IC50": 10},
      {"compound": "CCOC(=O)/C=C/[C@H](C[C@@H]1CCNC1=O)NC(=O)[C@H](CC(C)C)NC(=O)OC(c1ccccc1)C(F)(F)c1cccc(Cl)c1", "note": "(stereo partly drawn) [Compound A128]", "IC50": 3950},
      {"compound": "O=C(N[C@@H](CC1CCCCC1)C(=O)N[C@@H](C[C@@H]1CCCNC1=O)C(=O)C(=O)NC1CC1)OC(c1ccccc1)C(F)(F)c1cccc(Cl)c1", "note": "(stereo partly drawn) [Compound A129]", "IC50": 130},
      {"compound": "CCNC(=O)C(=O)[C@H](C[C@@H]1CCNC1=O)NC(=O)[C@H](CC1CCCCC1)NC(=O)OC(c1ccccc1)C(C)(C)c1cccc(F)c1", "note": "(stereo partly drawn) [Compound A130]", "IC50": 88},
      {"compound": "CCNC(=O)C(=O)[C@H](C[C@@H]1CCNC1=O)NC(=O)[C@H](CC1CC1)NC(=O)OC(c1ccccc1)C(F)(F)c1cccc(Cl)c1", "note": "(stereo partly drawn) [Compound A131]", "IC50": 0.2},
      {"compound": "CCNC(=O)C(=O)[C@H](C[C@@H]1CCNC1=O)NC(=O)[C@H](CC1CCC1)NC(=O)OC(c1ccccc1)C(F)(F)c1cccc(Cl)c1", "note": "(stereo partly drawn) [Compound A132]", "IC50": 66}
    ]}
  ]
}
